Assay results published in patent US20080070958A1, “Therapeutic Agent for Keratoconjunctival Disorder” (priority 2004, published 2008).

Tested on: corneal damage in corneal disorder models
Assay: Test for therapeutic effect on corneal damage (rat corneal disorder model, exorbital lacrimal gland removal, fluorescein staining score)
Assay type: in vivo, male SD rats
Conditions: for Improvement ratio (%): {(control)-(compound)}/{(control)-(normal eye)}x100; for Mean value of total scores: fluorescein staining score of cornea (upper, middle, lower parts, each 0-3), mean of 8 eyes
Procedure: Test for Therapeutic Effect on Corneal Damage Using male SD rats, in accordance with the method of Fujihara et al. (Invest. Ophthalmol. Vis. Sci. 42 (1): 96-100 (2001)), corneal disorder models were produced. After the production of the corneal disorder models, the improvement ratio of a corneal damage was evaluated according to the method of Murakami et al. (Journal of the eye 21 (1): 87-90 (2004)). Male SD rats were systemically anesthetized by an administration of Nembutal. Subsequently the exorbital lacrimal gland of each rat was removed and a corneal damage was induced over a period of 2 months. Then, E-4-[4-(5-methyl-2-phenyl-4-oxazolylmethoxy) benzyloxyimino]-4-phenylbutyric acid (Compound A), Z-2-[4-(5-methyl-2-phenyl-4-oxazolylmethoxy) benzyloxyimino]-2-(4-phenoxyphenyl) acetic acid (Compound B), 2-[2-propyl-3-[3-[2-ethyl-4-(4-fluorophenyl)-5-hydroxyphenoxy]propoxy]phenoxy]sodium benzoate (Compound C) or 2(S)-methoxy-3-[4-[3-(4-phenoxyphenoxy)propoxy]phenyl] propionic acid (Compound D) was administered to the rats as follows. A physiological saline solution of Compound A (0.006%) was instilled into both eyes 6 times a day for 7 days (one group consisting of 4 animals, 8 eyes). A physiological saline solution of Compound B (0.006%) was instilled into both eyes 6 times a day for 7 days (one group consisting of 4 animals, 8 eyes). A physiological saline solution of Compound C (0.006%) was instilled into both eyes 6 times a day for 7 days (one group consisting of 4 animals, 8 eyes). A phosphate-buffered saline (PBS) solution of Compound D (0.002%) was instilled into both eyes 6 times a day for 7 days (one group consisting of 4 animals, 8 eyes). In a control group, physiological saline or PBS was instilled into both eyes 6 times a day for 7 days (one group consisting of 4 animals, 8 eyes). Seven days after the start of instillation, the damaged parts of the cornea were stained with fluorescein. For each of the upper, middle and lower parts of the cornea, the degree of fluorescein staining was evaluated by scoring according to the criteria shown below and the mean value of the total scores for each of the above-mentioned parts was calculated. • 0: No punctate staining • 1: Scattered staining (punctate staining being separated) • 2: Moderate staining (a part of punctuate staining being adjacent) • 3: Heavy staining (punctate staining being barely separated) (Results) By taking the mean value of the total scores for the control group (physiological saline or PBS) as a standard (improvement ratio: 0%), the calculation was carried out. Each of the improvement ratios for the Compound A administration group, the Compound B administration group and the Compound C administration group is shown in Table 1 and the improvement ratio for the Compound D administration group is shown in Table 2. The mean value of the scores is a mean of those of 8 cases, respectively. The improvement ratio was calculated according to the following equation. Improvement ratio (%)={(control)−(the present compound)}/damage degree×100 Damage degree={(control)−(normal eye)}

[1] = 0.006% in physiological saline instilled into both eyes 6 times a day for 7 days, vs physiological saline control (0%)
[2] = 0.006% in physiological saline instilled into both eyes 6 times a day for 7 days, normal eye 3.0, saline control 6.1

| SMILES | Improvement ratio (%) [1] [%] | Mean value of total scores [2] | Improvement ratio (%) (0.002% in PBS instilled into both eyes 6 times a day for 7 days, vs PBS control (0%)) | Mean value of total scores (0.002% in PBS instilled into both eyes 6 times a day for 7 days, normal eye 3.1, PBS control 5.6) |
| --- | --- | --- | --- | --- |
| Cc1oc(-c2ccccc2)nc1COc1ccc(CO/N=C(\CCC(=O)O)c2ccccc2)cc1 [Compound A, E-4-[4-(5-methyl-2-phenyl-4-oxazolylmethoxy)benzyloxyimino]-4-phenylbutyric acid] | 32.3 | 5.1 |  |  |
| CCCc1c(OCCCOc2cc(O)c(-c3ccc(F)cc3)cc2CC)cccc1Oc1ccccc1C(=O)[O-].[Na+] [Compound C, 2-[2-propyl-3-[3-[2-ethyl-4-(4-fluorophenyl)-5-hydroxyphenoxy]propoxy]phenoxy]sodium benzoate] | 38.7 | 4.9 |  |  |
| CO[C@@H](Cc1ccc(OCCCOc2ccc(Oc3ccccc3)cc2)cc1)C(=O)O [Compound D, 2(S)-methoxy-3-[4-[3-(4-phenoxyphenoxy)propoxy]phenyl] propionic acid] |  |  | 12.0 | 5.3 |
| Cc1oc(-c2ccccc2)nc1COc1ccc(CO/N=C(\C(=O)O)c2ccc(Oc3ccccc3)cc2)cc1 [Compound B, Z-2-[4-(5-methyl-2-phenyl-4-oxazolylmethoxy)benzyloxyimino]-2-(4-phenoxyphenyl) acetic acid] | 32.3 | 5.1 |  |  |
